In article PMC11855478, “Bicyclic N,S-Acetals Containing Fused Cysteine-Amide System as New Heterocyclic Class Targeting Human Farnesyltransferase (FTase-h)” (International Journal of Molecular Sciences, 2025):

How the values were obtained:
OVCAR-8 (Ovarian Cancer) = assay: NCI one dose, OVCAR-8; format: cell-based, human; settings: OVCAR-8, 1.00E-5 Molar one dose
Summary of the method: (§1)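 Here the NCI sixty-cell human cancer panel served as the test system; after two days (48 h) on compound, remaining cell mass was assessed by sulforhodamine B.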

MALME-3M (Melanoma) = assay: NCI one dose, MALME-3M; format: cell-based, human; settings: 1.00E-5 Molar one dose
Summary of the method: as §1

HCT-15 (Colon Cancer) = assay: NCI one dose, HCT-15; format: cell-based, human; settings: HCT-15, 1.00E-5 Molar one dose
Summary of the method: (§2)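 NCI60 human tumour panel; 48 h drug exposure; SRB read-out.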

HT29 (Colon Cancer) = assay: NCI one dose, HT29; format: cell-based, human; settings: HT29, 1.00E-5 Molar one dose
Summary of the method: as §2

[1] = tested on: EKVX (Non-Small Cell Lung Cancer); assay: NCI one dose, EKVX; format: cell-based, human; settings: 1.00E-5 Molar one dose
Summary of the method: as §2

[2] = tested on: NCI-H23 (Non-Small Cell Lung Cancer); assay: NCI one dose, NCI-H23; format: cell-based, human; settings: NCI-H23, 1.00E-5 Molar one dose
Summary of the method: as §2

COLO 205 (Colon Cancer) = assay: NCI one dose, COLO 205; format: cell-based, human; settings: COLO 205, 1.00E-5 Molar one dose
Summary of the method: as §2

K-562 leukaemia cells = assay: NCI one dose, K-562; format: cell-based, human; settings: K-562, 1.00E-5 Molar one dose
Summary of the method: as §2

U251 (CNS Cancer) = assay: NCI one dose, U251; format: cell-based, human; settings: U251, 1.00E-5 Molar one dose
Summary of the method: as §2

UACC-62 (Melanoma) = assay: NCI one dose, UACC-62; format: cell-based, human; settings: UACC-62, 1.00E-5 Molar one dose
Summary of the method: as §2

OVCAR-5 (Ovarian Cancer) = assay: NCI one dose, OVCAR-5; format: cell-based, human; settings: OVCAR-5, 1.00E-5 Molar one dose
Summary of the method: as §2

[3] = tested on: HOP-92 (Non-Small Cell Lung Cancer); assay: NCI one dose, HOP-92; format: cell-based, human; settings: HOP-92, 1.00E-5 Molar one dose
Summary of the method: as §2

[4] = tested on: panel of 60 human cancer cell lines; assay: NCI 60 cell panel one dose screen (whole panel); format: cell-based; parameters: Delta (One Dose Mean Graph): unit not given here; settings: 1.00E-5 Molar one dose
Summary of the method: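 Sulforhodamine B read-out after 48 h treatment at one high dose (10 µM), run on the full 60-line NCI human tumour cell panel.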

MOLT-4 (Leukemia) = assay: NCI one dose, MOLT-4; format: cell-based, human; settings: MOLT-4, 1.00E-5 Molar one dose
Summary of the method: as §2

CCRF-CEM (Leukemia) = assay: NCI one dose, CCRF-CEM; format: cell-based, human; settings: 1.00E-5 Molar one dose
Summary of the method: as §2

HCT-116 (Colon Cancer) = assay: NCI one dose, HCT-116; format: cell-based, human; settings: HCT-116, 1.00E-5 Molar one dose
Summary of the method: as §2

[5] = tested on: MDA-MB-231/ATCC (Breast Cancer); assay: NCI one dose, MDA-MB-231/ATCC; format: cell-based, human; settings: 1.00E-5 Molar one dose
Summary of the method: as §2

HS 578T (Breast Cancer) = assay: NCI one dose, HS 578T; format: cell-based, human; settings: 1.00E-5 Molar one dose
Summary of the method: as §2

ACHN (Renal Cancer) = assay: NCI one dose, ACHN; format: cell-based, human; settings: 1.00E-5 Molar one dose
Summary of the method: as §1

[6] = tested on: A549/ATCC (Non-Small Cell Lung Cancer); assay: NCI one dose, A549/ATCC; format: cell-based, human; settings: 1.00E-5 Molar one dose
Summary of the method: as §2

SK-MEL-2 (Melanoma) = assay: NCI one dose, SK-MEL-2; format: cell-based, human; settings: SK-MEL-2, 1.00E-5 Molar one dose
Summary of the method: as §2

A498 (Renal Cancer) = assay: NCI one dose, A498; format: cell-based, human; settings: A498, 1.00E-5 Molar one dose
Summary of the method: as §2

SF-295 (CNS Cancer) = assay: NCI one dose, SF-295; format: cell-based, human; settings: SF-295, 1.00E-5 Molar one dose
Summary of the method: as §1

IGROV1 (Ovarian Cancer) = assay: NCI one dose, IGROV1; format: cell-based, human; settings: IGROV1, 1.00E-5 Molar one dose
Summary of the method: as §2

M14 (Melanoma) = assay: NCI one dose, M14; format: cell-based, human; settings: M14, 1.00E-5 Molar one dose
Summary of the method: as §2

SF-539 (CNS Cancer) = assay: NCI one dose, SF-539; format: cell-based, human; settings: SF-539, 1.00E-5 Molar one dose
Summary of the method: as §2

786-0 (Renal Cancer) = assay: NCI one dose, 786-0; format: cell-based, human; settings: 786-0, 1.00E-5 Molar one dose
Summary of the method: as §2

[7] = tested on: NCI-H322M (Non-Small Cell Lung Cancer); assay: NCI one dose, NCI-H322M; format: cell-based, human; settings: 1.00E-5 Molar one dose
Summary of the method: as §2

RXF 393 (Renal Cancer) = assay: NCI one dose, RXF 393; format: cell-based, human; settings: RXF 393, 1.00E-5 Molar one dose
Summary of the method: as §2

SNB-19 (CNS Cancer) = assay: NCI one dose, SNB-19; format: cell-based, human; settings: SNB-19, 1.00E-5 Molar one dose
Summary of the method: as §2

OVCAR-4 (Ovarian Cancer) = assay: NCI one dose, OVCAR-4; format: cell-based, human; settings: OVCAR-4, 1.00E-5 Molar one dose
Summary of the method: as §2

SK-MEL-5 (Melanoma) = assay: NCI one dose, SK-MEL-5; format: cell-based, human; settings: SK-MEL-5, 1.00E-5 Molar one dose
Summary of the method: as §2

SR (Leukemia) = assay: NCI one dose, SR; format: cell-based, human; settings: 1.00E-5 Molar one dose
Summary of the method: as §2

COc1ccc(CNC(=O)[C@@H]2CS[C@@]3(C)c4ccccc4C(=O)N23)cc1 [4bF]
Growth Percent (OVCAR-8 (Ovarian Cancer)): 94.06%
Growth Percent (MALME-3M (Melanoma)): 111.34%
Growth Percent (HCT-15 (Colon Cancer)): 101.20%
Growth Percent (HT29 (Colon Cancer)): 84.10%
Growth Percent [1]: 106.83%
Growth Percent [2]: 96.08%
Growth Percent (COLO 205 (Colon Cancer)): 108.39%
Growth Percent (K-562 leukaemia cells): 77.39%
Growth Percent (U251 (CNS Cancer)): 93.45%
Growth Percent (UACC-62 (Melanoma)): 93.24%
Growth Percent (OVCAR-5 (Ovarian Cancer)): 107.98%
Growth Percent [3]: 80.27%
Delta (One Dose Mean Graph) [4]: 24.39
Range (One Dose Mean Graph) ([4]; in % (unit assumed)): 39.02
Mean Growth Percent ([4]; mean over tested cell lines): 96.71%
Growth Percent (MOLT-4 (Leukemia)): 76.38%
Growth Percent (CCRF-CEM (Leukemia)): 93.94%
Growth Percent (HCT-116 (Colon Cancer)): 93.74%
Growth Percent [5]: 93.86%
Growth Percent (HS 578T (Breast Cancer)): 96.39%
Growth Percent (ACHN (Renal Cancer)): 101.13%
Growth Percent [6]: 80.46%
Growth Percent (SK-MEL-2 (Melanoma)): 93.38%
Growth Percent (A498 (Renal Cancer)): 96.46%
Growth Percent (SF-295 (CNS Cancer)): 93.44%
Growth Percent (IGROV1 (Ovarian Cancer)): 107.92%
Growth Percent (M14 (Melanoma)): 102.83%
Growth Percent (SF-539 (CNS Cancer)): 105.73%
Growth Percent (786-0 (Renal Cancer)): 98.12%
Growth Percent [7]: 107.95%
Growth Percent (RXF 393 (Renal Cancer)): 95.28%
Growth Percent (SNB-19 (CNS Cancer)): 99.83%
Growth Percent (OVCAR-4 (Ovarian Cancer)): 98.29%
Growth Percent (SK-MEL-5 (Melanoma)): 103.30%
Growth Percent (SR (Leukemia)): 84.33%
